Data published in EP1726305A1, “Zinc salt of omeprazole and its enantiomers” (Ratiopharm GmbH, priority 2005, dated 2006).
Values after ≈ are worked out from the molar mass of the structure shown. Where two headings read alike, the source gives them in different places.

What was measured:
Format in all cases: physicochemical
[1] = Bulk density and tapped density (Ph.Eur. 2.9.15, Erweka SVM 22 volumeter, 1250 taps); conditions: mean of three determinations; for Stampfdichte: after 1250 taps
Method: Sofern nichts anderes angegeben ist, erfolgt die Bestimmung der Schüttdichte und Stampfdichte nach Ph.Eur. 5.0 General Notices 2.9.15.
(§1) Insbesondere wurde zur Bestimmung der Schüttdichte jeweils etwa 250 ml Substanz, möglichst erschütterungsfrei in einen 250 ml Meßzylinder des Schütt-Stampf-Volumeters (Erweka SVM 22, Ser. Nr. 108.480.446) gefüllt und die Masse bestimmt (Schüttgewicht). Anschließend wurde der Meßzylinder 1250 Stampfvorgängen ausgesetzt, und das Stampfvolumen wurde abgelesen. Die Werte für die Schütt- bzw. Stampfdichte erhält man durch Division der Einwaage durch die jeweiligen Volumenwerte. Die Bestimmung wurde dreifach durchgeführt und aus den Einzelergebnissen jeweils der Mittelwert gebildet. Die Löslichkeit wurde bei Zimmertemperatur (25°C) bei verschiedenen pH-Werten untersucht, indem festes Material in den jeweiligen Medien durch Ultraschall und Schütteln soweit als möglich gelöst wurde. Die Proben wurden filtriert und über HPLC analysiert und mittels UV-Detektion vermessen.
Auf folgende Art und Weise wurde die Schüttdichte und die Stampfdichte des nach Beispiel 1 hergestellten Zinksalzes des (-)-Enantiomers des Omeprazols bestimmt und mit den auf entsprechende Art und Weise bestimmten Werten des Magnesiumsalzes des (-)-Enantiomers des Omeprazols verglichen. Das Magnesiumsalz des (-)-Enantiomers des Omeprazols wurde entsprechend der Offenbarung der WO 94/27988 hergestellt.
Zur Bestimmung der Schüttdichte wurden jeweils 250 ml Substanz möglichst erschütterungsfrei in einen 250 ml Meßzylinder des Schütt-Stampf-Volumeters (Erweka SVM 22, Ser. Nr. 108.480.446) gefüllt und die Masse bestimmt (Schüttgewicht). Anschließend wurde der Meßzylinder 1250 Stampfvorgängen ausgesetzt, und das Stampfvolumen wurde abgelesen. Die Werte für die Schütt- bzw. Stampfdichte erhält man durch Division der Einwaage durch die jeweiligen Volumenwerte. Die Bestimmung wurde dreifach durchgeführt und aus den Einzelergebnissen jeweils der Mittelwert gebildet. Tabelle 1

[2] = Solubility of saturated solutions in aqueous media, HPLC/UV; conditions: for Löslichkeit: 0.5 h; for solubility thermodynamic at 0.5 h: saturated solution, n=1, 30 min ultrasound, read-out: Löslichkeit
Method: as §1
Die Löslichkeit des Zinksalzes des (-)-Enantiomers des Omeprazols und des Magnesiumsalzes des (-)-Enantiomers des Omeprazols wurde wie folgt bestimmt. In den unten aufgeführten Medien wurden gesättigte Lösungen (n=1) hergestellt, die nach 30 Minuten Ultraschallbehandlung noch einen deutlichen Bodensatz zeigten. Der Überstand der gesättigten Lösungen wurde über einen Membranfilter (0,45µm, Millex HV 25 mm, Millipore) filtriert und die klare Lösung mittels einer HPLC-Methode auf den Gehalt des gelösten Salzes untersucht. (Reversed Phase Chromatographie, Gradientenmodus, Säule: Luna C18(2), 150 x 3 mm, Phenomenex, Eluent 1: 10mM Tris-(hydroxymethyl)-aminomethan-Puffer pH 9.0, Eluent 2 : Acetonitril).
Das Zinksalz des (-)-Enantiomers des Omeprazols wurde gemäß Beispiel 1 vorstehend hergestellt, das Magnesiumsalz des (-)-Enantiomers des Omeprazols gemäß der Offenbarung der WO 94/27988.

[3] = Water content by Karl Fischer titration (Ph.Eur. 2.5.32); conditions: oven temperature 130 °C
Source text: Während das Magnesiumsalz als Trihydrat vorliegt und daher per se einen erheblichen Wassergehalt von etwa 6,23% aufweist, ist der Wassergehalt des Zinksalzes des (-)-Enantiomers des Omeprazols ausgesprochen gering und liegt bei nur etwa 0,8%, was ebenfalls einen überraschenden Vorteil des Zinksalzes des (-)-Enantiomers des Omeprazols ausmacht. Diese Messungen erfolgten mittels Karl-Fischer-Titration gemäß Ph.Eur. 2.5.32 mit dem Gerät Aqua 40.00 (Fa. ECH Halle). Das Gerät war ausgestattet mit einem Ausheizofen für Feststoffproben. Die Ausheiztemperatur für die untersuchte substanz betrug 130 °C: Als KF-Reagenz wurde eingesetzt Hydranal (Coulomat AG, Riedel-de Haen. Als Standard wurde verwendet Natriumtartrat-dihydrat (Apura, Merck).

| Löslichkeit ([2]; demineralised water) | Löslichkeit ([2]; usp buffer, pH 6) | Löslichkeit ([2]; usp buffer, pH 7) | Compound | Stampfdichte [1] | Schüttdichte [1] | Wassergehalt [3] | solubility thermodynamic at 0.5 h ([2]; demineralised water, dem. Wasser) [µg/mL] | solubility thermodynamic at 0.5 h ([2]; usp buffer, pH 6, aqueous buffer, USP-Puffer pH 6,0) [µg/mL] | solubility thermodynamic at 0.5 h ([2]; usp buffer, pH 6, aqueous buffer, USP-Puffer pH 6,8) [µg/mL] | solubility thermodynamic at 0.5 h ([2]; usp buffer, pH 7, aqueous buffer, USP-Puffer pH 7,4) [µg/mL] |
| --- | --- | --- | --- | --- | --- | --- | --- | --- | --- | --- |
| 0,02 mg/ml | 0,07 mg/ml | 0,04 mg/ml | Zinksalz des (-)-Enantiomers von Omeprazol [Zinksalz des (-)-Enantiomers des Omeprazols] | 481,59 g/l | 415,62 g/l | ~0,8% |  |  |  |  |
|  |  |  | COc1ccc2nc([S@@+]([O-])Cc3ncc(C)c(OC)c3C)[nH]c2c1 [Magnesiumsalz des (-)-Enantiomers des Omeprazols] | 242,68 g/l | 199,00 g/l | ~6,23% | 930 (≈ 2690 µM) | 780 (≈ 2260 µM) | 900 (≈ 2610 µM) | 890 (≈ 2580 µM) |
